The results in this text go back to US9409931B1, “3-O-acyl-ingenol analogues” (LEO LABORATORIES LIMITED, priority 2015, dated 2016).

One may read the EC50 as the midpoint of the concentration-response curve.

The subject of experiment [1] is Primary human epidermal keratinocytes, HeKa. Nature of the experiment: HeKa cytokine release (IL-8). As to conditions: normalized to positive control 1.5×10^−7 M PEP0005, 6 h incubation, read-out: HeKa cytokine release (IL-8) Rel EC50. Format: cell-based. As to the method:
Primary human epidermal keratinocytes, HeKa, were seeded (10.000 cells/well) in 96-well plates the day before the assay. Test compounds were diluted in DMSO (dimethyl sulfoxide) and further diluted in assay medium and pipetted into wells of 96 well-plates containing HeKa cells. The plates were incubated for 6 h at 37° C. in humidified air with 5% CO2. Plates were centrifuged briefly to spin down cells at 4° C., the supernatant was removed and analysed by Meso Scale Discovery (MSD) 4-spot cytokine assay (Pro-inflammatory II Ultra Sensitive kit, MSD, MD, USA). The MSD assay employs a sandwich immunoassay format where capture antibodies are coated in a patterned array on the bottom of the wells of a 4-Spot-Multi-MSD plate. Standard samples were incubated in the MULTI-SPOT plates as well, and the cytokine (IL-8) binds to its corresponding capture antibody spot. The cytokine level was quantitated on a SECTOR™ Imager using a cytokine-specific Detection Antibody labelled with MSD SULFO-TAG™ reagent.
Test compound titration curves were fitted to a four-parameter sigmoidal curve after normalizing the effect of the test compound to the effect of the positive control (1.5×10^−7 M PEP0005). Rel EC50 (relative EC50) denotes the concentration of test compound producing an effect that is midway between the fitted top and bottom.

The target of experiment [2] is Human Protein Kinase C betaII (PKCbII) (Homo sapiens (Human), UniProt P05771). Nature of the experiment: PKCbetaII activity assay. Format: biochemical. The settings on record: γ-33P-ATP, normalized to the effect of DMSO, read-out: PKC-β binding Rel EC50. As to the method:
On the day at experiment Human Protein Kinase C betaII (PKCbII, Millipore cat#14-496) was incubated with 20 mM HEPES pH 7.4, 0.03% Triton X-100, 0.1 mM CaCl2, 0.1 mg/mL phosphatidylserine, 0.1 mg/mL histone H1, 10 mM MgAcetate. Amount of enzyme in each assay was 1.8 ng (final assay volume is 25 μL). The compounds were then diluted to 500 μM, and then serially diluted in 100% DMSO in semi-logarithmic decrements for 12 points. 0.5 μL of each concentration, in duplicate, was pipetted into a dry 96 well assay plate using a TIP Mosquito. Control and blank wells received 0.5 μL of 100% DMSO instead of compound. 14.5 μl kinase in assay buffer was added to each well. The assay was started with the addition of 10 μL ATP containing γ-33P-ATP] (specific activity approx. 500 cpm/pmol), to a final assay concentration of 70 μM. The reaction was allowed to proceed at room temperature for 40 minutes before the addition of 5 μL 3% ortho-phosphoric acid. Blank wells were acid blanks, and had 5 μL 3% ortho-phosphoric acid added before the addition of ATP. 10 μL of the stopped reaction products was transferred to a P30 filtermat which was then washed 4 times in 75 mM ortho-phosphoric acid, and once in methanol before drying. The filter was read by liquid scintillation counting using a Wallac Trilux. Rel EC50 (relative EC50) denotes the concentration of test compound that produces a response half-way between the fitted top and the fitted bottom of the curve when activities are normalized to the effect of DMSO.

Experiment [3] concerns the target Human Protein Kinase C delta (PKCδ) (Homo sapiens (Human), UniProt Q05655). Nature of the experiment: PKC δ binding assay. Format: biochemical. The settings on record: kinase activation, γ-33P-ATP, normalized to the effect of DMSO; read-out: PKC-δ binding Rel EC50. As to the method: On the day at experiment Human Protein Kinase C delta (PKCδ, Millipore cat#14-504) was diluted in 20 mM HEPES, 0.03% Triton X-100. Amount of enzyme in each assay was 7.25 ng (final assay volume is 25 μL). All compounds for testing were diluted to 1 mM in 100% DMSO as an intermediary dilution. The compounds were then diluted further to 50 μM, and then serially diluted in 100% DMSO in semi-logarithmic decrements for 12 points. 0.5 μL of each concentration, in duplicate, was pipetted into a dry 96 well assay plate using a TTP Mosquito. Control and blank wells received 0.5 μL of 100% DMSO instead of compound. The assay was built with the addition of 14.5 μL of assay mixture, containing appropriately diluted enzyme and 20 mM HEPES pH 7.4, 0.03% Triton X-100, 0.05 mg/mL phosphatidylserine, and 50 μM ERMRPRKRQGSVRRRV. The assay was started with the addition of 10 μL ATP containing γ-33P-ATP] (specific activity approx. 500 cpm/pmol), to a final assay concentration of 15 μM. The reaction was allowed to proceed at room temperature for 40 minutes before the addition of 5 μL 3% ortho-phosphoric acid. Blank wells were acid blanks, and had 5 μL 3% ortho-phosphoric acid added before the addition of ATP. 10 μL of the stopped reaction products was transferred to a P30 filtermat which was then washed 4 times in 75 mM ortho-phosphoric acid, and once in methanol before drying. The filter was read by liquid scintillation counting using a Wallac Trilux. Rel EC50 (relative EC50) denotes the concentration of test compound that produces a response half-way between the fitted top and the fitted bottom of the curve when activities are normalized to the effect of DMSO.

The subject of experiment [4] is PMN's (polymorphonuclear leukocytes). Nature of the experiment: Neutrophil oxidative burst. Format: cell-based. As to conditions: Leukocyte, 40 min; normalized to positive control 5×10^−7 M PEP0005; 40 min incubation at RT; read-out: Neutrophil oxidative burst Rel EC50. As to the method:
PMN's (polymorphonuclear leukocytes) were isolated and purified from fresh buffy coats by sequential sedimentation, density centrifugation and lysis of contaminating erythrocytes. Buffy coats were incubated with 2% methocel for 30-45 min to differentially sediment red blood cells. The leukocyte-rich supernatant was transferred to lymphoprep tubes to remove mononuclear cells by density centrifugation (400×g, 30 min). The pellet was resuspended and any remaining erythrocytes lysed using 0.2% NaCl for 30 sec before restoring isotonicity by the addition of 1.2% NaCl. This step was repeated until the cell pellet appears relatively free of red blood cells. Cells were resuspended in DPBS (Dulbecco's Phosphate Buffered Saline) (w.o. Ca^2+, Mg^2+) and the concentration adjusted to 1.4×10^6 cells/ml in HBSS (Hanks Balanced Salt solution) (w Ca^2+, Mg^2+) containing 0.1% BSA (Bovine Serum Albumin) and 5 mM glucose just prior to assay initiation. Titrated reference and test compounds were pre-mixed with HE (Hydroethidine) (10 μM final assay concentration) before addition to 96-well plates containing 2.5×10^5 cells. Following 40 min incubation at RT, changes in the respiratory burst was estimated by measuring fluorescence at 579 nm (excitation: 485 nm) using an Envision plate reader.
Test compound titration curves were fitted to a four-parameter sigmoidal curve after normalizing the effect of the test compound to the effect of the positive control (5×10^−7 M PEP0005). Rel EC50 (relative EC50) denotes the concentration of test compound producing an effect that is midway between the fitted top and bottom.

Human Protein Kinase C delta (PKCδ), sequence (Q05655 whole entry): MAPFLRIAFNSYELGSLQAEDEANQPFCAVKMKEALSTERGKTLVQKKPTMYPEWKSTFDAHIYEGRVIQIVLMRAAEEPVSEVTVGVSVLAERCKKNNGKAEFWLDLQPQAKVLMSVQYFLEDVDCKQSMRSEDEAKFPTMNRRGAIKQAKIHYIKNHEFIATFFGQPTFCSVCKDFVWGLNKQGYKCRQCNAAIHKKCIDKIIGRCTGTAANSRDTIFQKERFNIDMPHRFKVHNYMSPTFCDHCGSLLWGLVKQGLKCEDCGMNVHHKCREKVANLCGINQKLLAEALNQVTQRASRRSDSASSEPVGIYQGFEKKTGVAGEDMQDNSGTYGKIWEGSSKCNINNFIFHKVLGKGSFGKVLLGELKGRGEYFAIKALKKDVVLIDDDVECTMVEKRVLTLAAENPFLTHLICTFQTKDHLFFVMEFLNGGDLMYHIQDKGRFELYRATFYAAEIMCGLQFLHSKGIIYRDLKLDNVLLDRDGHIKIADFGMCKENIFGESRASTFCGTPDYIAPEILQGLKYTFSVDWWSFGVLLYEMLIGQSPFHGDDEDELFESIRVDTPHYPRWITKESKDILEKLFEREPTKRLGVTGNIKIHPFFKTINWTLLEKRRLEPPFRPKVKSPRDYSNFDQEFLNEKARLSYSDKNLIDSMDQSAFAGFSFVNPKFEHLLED
Human Protein Kinase C betaII (PKCbII), sequence (P05771 other isoform, or with tags, fused parts or gaps): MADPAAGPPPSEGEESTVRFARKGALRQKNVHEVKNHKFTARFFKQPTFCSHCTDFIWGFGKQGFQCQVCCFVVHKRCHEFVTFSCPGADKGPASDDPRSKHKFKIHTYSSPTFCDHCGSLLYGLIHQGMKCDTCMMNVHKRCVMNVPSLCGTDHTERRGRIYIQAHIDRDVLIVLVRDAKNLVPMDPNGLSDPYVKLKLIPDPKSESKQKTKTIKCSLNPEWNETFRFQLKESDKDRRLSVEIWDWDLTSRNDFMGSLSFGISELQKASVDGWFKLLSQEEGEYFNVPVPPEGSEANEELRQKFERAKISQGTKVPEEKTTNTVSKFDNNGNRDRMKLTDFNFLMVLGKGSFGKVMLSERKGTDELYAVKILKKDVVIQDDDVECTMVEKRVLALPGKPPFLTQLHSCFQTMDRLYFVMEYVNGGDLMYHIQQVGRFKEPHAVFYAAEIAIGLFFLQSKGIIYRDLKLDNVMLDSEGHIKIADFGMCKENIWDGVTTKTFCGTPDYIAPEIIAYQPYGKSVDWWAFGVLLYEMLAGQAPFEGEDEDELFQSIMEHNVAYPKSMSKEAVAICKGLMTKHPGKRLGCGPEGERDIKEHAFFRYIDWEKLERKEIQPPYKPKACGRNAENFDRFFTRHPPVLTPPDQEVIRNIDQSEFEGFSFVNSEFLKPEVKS

With `CC1=C[C@]23C(=O)[C@@H](C=C(CO)C[C@@H]2[C@H]1OC(=O)C1(C)CCCCC1)[C@H]1[C@@H](C[C@H]3C)C1(C)C` [Compound 5, 4,5-dideoxyingenol 3-(1-methyl-cyclohexanecarboxylate)], the EC50 in experiment [1] was 130 nM; in experiment [2] it was 6 nM; in experiment [3], 1110 nM; in experiment [4], 13 nM.

Regarding `CC1=C[C@]23C(=O)[C@@H](C=C(CO)C[C@]2(O)[C@H]1OC(=O)C1(C)CCCCC1)[C@H]1[C@@H](C[C@H]3C)C1(C)C` [Compound 6, 5-deoxyingenol 3-(1-methyl-cyclohexanecarboxylate)], the EC50 in experiment [1] came to 26 nM; in experiment [2] it was 0.8 nM; in experiment [3], 80 nM; in experiment [4], 7 nM.

As to `CC1=C[C@]23C(=O)[C@@H](C=C(CO)[C@@H](O)[C@@H]2[C@H]1OC(=O)C1(C)CCCCC1)[C@H]1[C@@H](C[C@H]3C)C1(C)C` [Compound 7, 4-deoxyingenol 3-(1-methyl-cyclohexanecarboxylate)], the concentration for a half-maximal effect (EC50) in experiment [1] came out at 35 nM; in experiment [2], 0.2 nM; in experiment [3] it was 154 nM; in experiment [4], 9 nM.

Turning to `CC1=C[C@@]23CC[C@@H]4[C@H]([C@H](C=C(CO)[C@@H](O)[C@]2(O)[C@H]1OC(=O)C1(C)CCCCC1)C3=O)C4(C)C` [Compound 8, 11-desmethyl-ingenol 3-(1-methyl-cyclohexanecarboxylate)], the EC50 in experiment [1] stood at 4 nM; in experiment [2], 0.1 nM; in experiment [3], 7 nM; in experiment [4], 4 nM.
